Measured values as given in paper PMC10761072, “Post-transcriptional capping generates coenzyme A-linked RNA” (RNA Biology, 2023).

Molecular target: T1, phosphopantetheine adenylyltransferase (PPAT, CoaD) (Escherichia coli, UniProt P0A6I6)
T1 construct: recombinant full-length enzyme expressed from coaD plasmid and purified; hexamer
Test: capping of […]-labelled 5-mer pppRNA with pPant, denaturing PAGE
Type: biochemical
Conditions: read-out: half-maximal inhibition

T1 sequence (P0A6I6 whole entry): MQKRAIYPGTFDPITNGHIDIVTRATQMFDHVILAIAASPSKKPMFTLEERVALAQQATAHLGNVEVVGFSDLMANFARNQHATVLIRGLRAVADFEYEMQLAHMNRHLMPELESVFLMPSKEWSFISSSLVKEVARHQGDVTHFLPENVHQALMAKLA

- IC50: ~5 µM
Compound: Nc1ncnc2c1ncn2[C@@H]1O[C@H](COP(=O)(O)OP(=O)(O)OP(=O)(O)O)[C@@H](O)[C@H]1O [ATP]
